Measurements from patent publication US8933039B2 (NPS Pharmaceuticals, Inc., priority 1995, dated 2015).
Non-standard residues stand in square brackets, D forms with d. Residues, ends and D or L forms follow the SMILES beside them. Met(O) = CS(=O)CC[C@H](N)C(=O)O

System: CD1 mice
Assay: Intestinotrophic activity assessment: small bowel weight in mice
Assay type: in vivo
Settings: for % Increase in small bowel weight: CD1 mice, 2.5 μg peptide s.c. b.i.d. in PBS, sacrificed 10 or 14 days, relative to vehicle only; for % Activity (small bowel inducing activity relative to native rat GLP-2(1-33) = 100%): mice, as Example 4
Protocol: Recipients were CD1 mice obtained from Charles River Laboratory (Ontario, Canada). The CD1 mice were aged-matched females at time of injection (n=3-4 per group), 6 weeks of age, unless otherwise specified. The animals were allowed a minimum of 24 hours to acclimatize to the laboratory facility before the initiation of each experiment. Animals were identified by ear punch. The mice were not restricted by diet or activity during the experiments. The light/dark cycle was 12 hours, between 6 pm to 6 am. Controls were age- and sex-matched (n=3-4) animals. Mice were injected subcutaneously, twice a day (b.i.d.), with 2.5 μg peptide in a total volume of 0.5 cc of PBS and were monitored daily in the laboratory facility. Animals were sacrificed 10 or 14 days after injection, and were fasted at least 20 hours before sacrifice.
The mice were anaesthetised with CO2 and exsanguinated by cardiac puncture. Blood was collected in 75 μl of TED (Trasysol; EDTA (5000 KIU/ml: 1.2 mg/ml; Diprotin-A), and the blood was centrifuged at 14 k×g for 5 minutes and the plasma was stored at −70 prior to analysis. The small bowel was removed from the peritoneal cavity, from pylorus to cecum, cleaned weighed and measured. For comparative purpose, sections from each animal were obtained from the identical anatomical position. Fragments each measuring 1.5-2.0 cm in length were obtained 8±2 cm, 18±2 cm, 32±2 cm from pylorus for histomorphometry representing proximal jejunum, distal jejunum and distal ileum. Each small bowel fragment was opened longitudinally on its antimesenteric border in a tissue block and then placed on 10% formalin (vol./vol.) overnight, then transferred to 70% […].
Percentage change in small bowel weight was calculated by dividing the mean change in bowel weight of analog treated mice, relative to mice treated with vehicle only, by the mean bowel weight of mice treated with vehicle only, and multiplying this figure by 100.
Experiments assessing the small bowel inducing activity of various analogs was repeated as described above for Example 4. In these experiments, the small bowel inducing activity of each analog in mice was calculated relative to that of native rat GLP-2(1-33) (expressed as 100% of activity). Resistance of analogs to DPP-IV cleavage was performed as described above in Example 3.

| Compound | % Increase in small bowel weight (listed as [Leu^10]rGLP-2) [%] | % Activity (small bowel inducing activity relative to native rat GLP-2(1-33) = 100%) [%] | % Increase in small bowel weight [%] |
| --- | --- | --- | --- |
| H-HADGSFSDELNTILDNLATRDFINWLIQTKITD-OH [[Leu10]ratGLP-2(1-33)] | 26 | 51 |  |
| H-HGDGSASDEMNTILDNLAARDFINWLIQTKITD-OH [[Gly2,Ala6]hGLP-2(1-33)] |  | 67 | 18 |
| H-HADGSFSDEMNTILDNLAAQDFINWLIQTKITD-OH [[Gln20]hGLP-2(1-33)] |  | 80 |  |
| H-HGDGSFSDEMNTILDNLAARDFINWLIATKITD-OH [[Gly2,Ala28]hGLP-2(1-33)] |  | 130 | 31 |
| H-HADGSFSDEMNTILDNLATRDFINW-OH [ratGLP-2(1-25)] |  | 8 |  |
| H-HGDGSFSDEMNTILDNLAARDFANWLIQTKITD-OH [[Gly2,Ala23]hGLP-2(1-33)] |  | 24 |  |
| H-HADGSFSDEMNTILDSRRARDFINWLIQTKITD-OH [[Ser16, Arg17, Arg18]hGLP-2(1-33)] |  | 59 |  |
| H-HGDGSFSDEMNTILDNLAARDFINWLIQTAITD-OH [[Gly2,Ala30]hGLP-2(1-33)] |  | 24 |  |
| H-HGDGSFSDEMNAILDNLAARDFINWLIQTKITD-OH [[Gly2,Ala12]hGLP-2(1-33)] |  | 67 | 18 |
| H-HGDGSFSAEMNTILDNLAARDFINWLIQTKITD-OH [[Gly2,Ala8]hGLP-2(1-33)] |  | 120 | 33 |
| H-HGDGSFSDEMNTIADNLAARDFINWLIQTKITD-OH [[Gly2,Ala14]hGLP-2(1-33)] |  | 30 |  |
| H-HGDGSFSDEANTILDNLAARDFINWLIQTKITD-OH [[Gly2,Ala10]hGLP-2(1-33)] |  | 82 | 33 |
| H-GSFSDEMNTILDNLATRDFINWLIQTKITD-OH [ratGLP-2(4-33)] |  | 6 |  |
| CC[C@H](C)[C@H](NC(=O)[C@H](Cc1ccccc1)NC(=O)[C@H](CC(=O)O)NC(=O)[C@H](CCCNC(=N)N)NC(=O)[C@H](C)NC(=O)[C@H](C)NC(=O)[C@H](CC(C)C)NC(=O)[C@H](CC(N)=O)NC(=O)[C@H](CC(=O)O)NC(=O)[C@H](CC(C)C)NC(=O)[C@@H](NC(=O)[C@@H](NC(=O)[C@H](CC(N)=O)NC(=O)[C@H](CCSC)NC(=O)[C@H](CCC(=O)O)NC(=O)[C@H](CC(=O)O)NC(=O)[C@H](CO)NC(=O)[C@H](Cc1ccccc1)NC(=O)[C@H](CO)NC(=O)CNC(=O)[C@H](CC(=O)O)NC(=O)[C@H](C)NC(=O)[C@@H](N)Cc1c[nH]cn1)[C@@H](C)O)[C@@H](C)CC)C(=O)N[C@@H](CC(N)=O)C(=O)N[C@@H](Cc1c[nH]c2ccccc12)C(=O)N[C@@H](CC(C)C)C(=O)N[C@H](C(=O)N[C@@H](CCC(N)=O)C(=O)N[C@H](C(=O)N[C@@H](CCCCN)C(=O)N[C@H](C(=O)N[C@H](C(=O)N[C@@H](CC(=O)O)C(=O)N[C@@H](Cc1ccc(O)cc1)C(=O)O)[C@@H](C)O)[C@@H](C)CC)[C@@H](C)O)[C@@H](C)CC [[Tyr34]hGLP-2(1-34)] |  | 135 |  |
| H-HGDGSFSDEMNTILDNLAARDFINALIQTKITD-OH [[Gly2,Ala25]hGLP-2(1-33)] |  | 18 |  |
| H-HADGSFSDEMNTILDNLATRDFINWLIQTK-OH [ratGLP-2(1-30)] |  | 23 |  |
| H-HGDGSFSDEMNTILDALAARDFINWLIQTKITD-OH [[Gly2,Ala16]hGLP-2(1-33)] |  | 130 | 36 |
| CC[C@H](C)[C@H](NC(=O)[C@H](Cc1ccccc1)NC(=O)[C@H](CC(=O)O)NC(=O)[C@H](CCCNC(=N)N)NC(=O)[C@@H](NC(=O)[C@H](C)NC(=O)[C@H](CC(C)C)NC(=O)[C@H](CC(N)=O)NC(=O)[C@H](CC(=O)O)NC(=O)[C@H](CC(C)C)NC(=O)[C@@H](NC(=O)[C@@H](NC(=O)[C@H](CC(N)=O)NC(=O)[C@H](CC[S+](C)[O-])NC(=O)[C@H](CCC(=O)O)NC(=O)[C@H](CC(=O)O)NC(=O)[C@H](CO)NC(=O)[C@H](Cc1ccccc1)NC(=O)[C@H](CO)NC(=O)CNC(=O)[C@H](CC(=O)O)NC(=O)[C@H](C)NC(=O)[C@@H](N)Cc1c[nH]cn1)[C@@H](C)O)[C@@H](C)CC)[C@@H](C)O)C(=O)N[C@@H](CC(N)=O)C(=O)N[C@@H](Cc1c[nH]c2ccccc12)C(=O)N[C@@H](CC(C)C)C(=O)N[C@H](C(=O)N[C@@H](CCC(N)=O)C(=O)N[C@H](C(=O)N[C@@H](CCCCN)C(=O)N[C@H](C(=O)N[C@H](C(=O)N[C@@H](CC(=O)O)C(=O)O)[C@@H](C)O)[C@@H](C)CC)[C@@H](C)O)[C@@H](C)CC (some centres unmarked) [[Met(O)10]ratGLP-2(1-33)] (H-HADGSFSDE[Met(O)]NTILDNLATRDFINWLIQTKITD-OH) |  | 18 |  |
| H-HADGTFSDEMNTILDNLAARDFINWLIQTKITD-OH [[Thr5]hGLP-2(1-33)] |  | 73 |  |
| CC[C@H](C)[C@H](NC(=O)[C@H](Cc1ccccc1)NC(=O)[C@H](CC(=O)O)NC(=O)[C@H](CCCNC(=N)N)NC(=O)[C@H](C)NC(=O)[C@H](C)NC(=O)[C@H](CC(C)C)NC(=O)[C@H](CC(N)=O)NC(=O)[C@H](CC(=O)O)NC(=O)[C@H](CC(C)C)NC(=O)[C@@H](NC(=O)[C@@H](NC(=O)[C@H](CC(N)=O)NC(=O)[C@H](CCSC)NC(=O)[C@H](CCC(=O)O)NC(=O)[C@H](CC(=O)O)NC(=O)[C@H](CO)NC(=O)[C@H](Cc1ccccc1)NC(=O)[C@H](CO)NC(=O)CNC(=O)[C@H](CC(=O)O)NC(=O)[C@H](C)NC(=O)[C@@H](N)Cc1c[nH]cn1)[C@@H](C)O)[C@@H](C)CC)C(=O)N[C@@H](CC(N)=O)C(=O)N[C@@H](Cc1c[nH]c2ccccc12)C(=O)N[C@@H](CC(C)C)C(=O)N[C@H](C(=O)N[C@@H](CCC(N)=O)C(=O)N[C@H](C(=O)N[C@@H](CCCCN)C(=O)N[C@H](C(=O)N[C@H](C(=O)N[C@@H](CC(=O)O)C(=O)NCCCCNC(=N)N)[C@@H](C)O)[C@@H](C)CC)[C@@H](C)O)[C@@H](C)CC [[Agm34]hGLP-2(1-34)] |  | 97 |  |
| H-HGDGSFSDEMATILDNLAARDFINWLIQTKITD-OH [[Gly2,Ala11]hGLP-2(1-33)] |  | 150 | 42 |
| H-HGDGSFSDEMNTILDNLAAADFINWLIQTKITD-OH [[Gly2,Ala20]hGLP-2(1-33)] |  | 105 | 46 |
| H-HADGSFSDEMNTILDNLAARDFINWLIQTKITN-OH [[Asn33]hGLP-2(1-33)] |  | 91 |  |
| H-HGDGSFSDEMNTALDNLAARDFINWLIQTKITD-OH [[Gly2,Ala13]hGLP-2(1-33)] |  | 67 | 18 |
| H-HADGSFSDEMNTILDNLATRDFINWLIQTKITD-NH2 [ratGLP-2(1-33)amide] |  | 56 | 23 |
| H-HGDGSFADEMNTILDNLAARDFINWLIQTKITD-OH [[Gly2,Ala7]hGLP-2(1-33)] |  | 82 | 22 |
| H-HGDGSFSDEMNTILDNLAARDFINWLAQTKITD-OH [[Gly2,Ala27]hGLP-2(1-33)] |  | 82 | 22 |
| H-HGDGSFSDEMNTILDNLAARDFINWAIQTKITD-OH [[Gly2,Ala26]hGLP-2(1-33)] |  | 28 |  |
